Patent publication US20230248845A1, “COMBINATION OF AN ANTIBODY-DRUG CONJUGATE AND AN ANTIBODY-SAPONIN CONJUGATE” (SAPREME TECHNOLOGIES B.V., priority 2020, published 2023)
Where two headings read alike, the source gives them in different places.

What was measured:
Experiment in all cases: Cell viability assay (MTS), targeted protein toxin mediated cell killing
Format in all cases: cell-based, human
A2058 cells (EGFR^−) = conditions: FIG. 8B
Method: (§1) After treatment the cells were incubated for 72 hr at 37° C. before the cell viability was determined by a MTS-assay, performed according to the manufacturer's instruction (CellTiter 96® AQueous One Solution Cell Proliferation Assay, Promega). Briefly, the MTS solution was diluted 20× in DMEM without phenol red (PAN-Biotech GmbH) supplemented with 10% FBS. The cells were washed once with 200 μL/PBS well, after which 100 μL diluted MTS solution was added/well. The plate was incubated for approximately 20-30 minutes at 37° C. Subsequently, the OD at 492 nm was measured on a Thermo Scientific Multiskan FC plate reader (Thermo Scientific). For quantification the background signal of ‘medium only’ wells was subtracted from all other wells, before the cell viability percentage of treated/untreated cells was calculated, by dividing the background corrected signal of treated wells over the background corrected signal of the untreated wells (×100).

A431 cells (EGFR^++) = system: A431 cells (EGFR^++)
Method: as §1

[1] = system: MDA-MB-468 cells (HER2^−); conditions: FIG. 9B
Method: as §1

SK-BR-3 cells (HER2^++) = system: SK-BR-3 cells (HER2^++)
Method: as §1

[2] = SO1861 titrated on 10 pM CD71mab-saporin
[3] = SO1861 titrated on 10 pM Pertuzumab-saporin
[4] = SO1861 titrated on 10 pM cetuximab-saporin
[5] = SO1861 titrated on 10 pM matuzumab-dianthin
[6] = SO1861 titrated on 50 pM Pertuzumab-saporin
[7] = SO1861 titrated on 50 pM trastuzumab-saporin
[8] = substance alone, equivalent concentrations, FIG. 2A

CC(=O)O[C@H]1[C@H](O[C@@H]2OC[C@@H](O)[C@H](O)[C@H]2O)[C@@H](O)[C@H](O[C@@H]2[C@H](O)[C@@H](O[C@@H]3O[C@@H](C)[C@H](O[C@@H]4OC[C@@H](O)[C@H](O[C@@H]5O[C@H](CO)[C@@H](O)[C@H](O)[C@H]5O)[C@H]4O)[C@@H](O)[C@H]3O)[C@H](OC(=O)[C@]34CCC(C)(C)C[C@H]3C3=CC[C@@H]5[C@@]6(C)CC[C@H](O[C@@H]7O[C@H](C(=O)O)[C@@H](O)[C@H](O[C@@H]8OC[C@@H](O)[C@H](O)[C@H]8O)[C@H]7O[C@@H]7O[C@H](CO)[C@H](O)[C@H](O)[C@H]7O)[C@@](C)(C=O)[C@@H]6CC[C@@]5(C)[C@]3(C)C[C@H]4O)O[C@@H]2C)O[C@@H]1C [SO1861] was tested, and the IC50 (A2058 cells (EGFR^−); [2]) was 200 nM, the IC50 (A2058 cells (EGFR^−); [3]) was 200 nM and the cell killing activity (A2058 cells (EGFR^−); [4]) was “not active”. The cell killing activity (A2058 cells (EGFR^−); [5]) was “not active”, the IC50 (A2058 cells (EGFR^−); [6]) was 200 nM and the IC50 (A2058 cells (EGFR^−); [7]) was 200 nM. The IC50 (A431 cells (EGFR^++); SO1861 titrated on 10 pM CD71-saporin, FIG. 8A, read-out: SO1861 IC50 cell killing) was 200 nM, the IC50 (A431 cells (EGFR^++); SO1861 titrated on 10 pM cetuximab-saporin, FIG. 8A, read-out: SO1861 IC50 cell killing) was 200 nM and the IC50 (A431 cells (EGFR^++); SO1861 titrated on 10 pM matuzumab-dianthin, FIG. 8A, read-out: SO1861 IC50 cell killing) was 200 nM. It also gave an IC50 (A431 cells (EGFR^++); SO1861 titrated on 10 pM pertuzumab-saporin, FIG. 8A, read-out: SO1861 IC50 cell killing) of 300 nM, an IC50 (A431 cells (EGFR^++); SO1861 titrated on 50 pM pertuzumab-saporin, FIG. 8A, read-out: SO1861 IC50 cell killing) of 200 nM and an IC50 (A431 cells (EGFR^++); SO1861 titrated on 50 pM trastuzumab, FIG. 8A, read-out: SO1861 IC50 cell killing) of 250 nM. It also gave an IC50 [1, 2] of 200 nM, an IC50 [1, 3] greater than 1000 nM and an IC50 [1, 4] of 200 nM. The IC50 [1, 5] was 200 nM, the IC50 [1, 6] was greater than 1000 nM and the IC50 [1, 7] was greater than 1000 nM. It also gave an IC50 (SK-BR-3 cells (HER2^++); SO1861 titrated on 10 pM CD71-saporin, FIG. 9A, read-out: SO1861 IC50 cell killing) of 200 nM, an IC50 (SK-BR-3 cells (HER2^++); SO1861 titrated on 10 pM Pertuzumab-saporin, FIG. 9A, read-out: SO1861 IC50 cell killing) of 200 nM and an IC50 (SK-BR-3 cells (HER2^++); SO1861 titrated on 10 pM cetuximab-saporin, FIG. 9A, read-out: SO1861 IC50 cell killing) of 200 nM. It also gave an IC50 (SK-BR-3 cells (HER2^++); SO1861 titrated on 10 pM matuzumab-dianthin, FIG. 9A, read-out: SO1861 IC50 cell killing) of 200 nM, an IC50 (SK-BR-3 cells (HER2^++); SO1861 titrated on 50 pM Pertuzumab-saporin, FIG. 9A, read-out: SO1861 IC50 cell killing) of 200 nM and an IC50 (SK-BR-3 cells (HER2^++); SO1861 titrated on 50 pM trastuzumab-saporin, FIG. 9A, read-out: SO1861 IC50 cell killing) of 200 nM.

“matuzumab-SO1861: SO1861-EMCH conjugated via cysteine residues (Cys) to matuzumab, with a DAR 3,3” showed an IC50 (A431 cells (EGFR^++); substance titrated on fixed 10 pM EGFdianthin, FIG. 6A, read-out: IC50 cell killing) of 2 nM and an IC50 (A431 cells (EGFR^++); substance titrated on fixed 10 pM cetuximab-saporin, FIG. 6A, read-out: IC50 cell killing) of 2 nM.

For “pertuzumab-(Cys-L-SO1861)^4: SO1861-EMCH conjugated via cysteine residues (Cys) to pertuzumab, with a DAR 4”, the cell killing activity (SK-BR-3 cells (HER2^++); [8]) was “could not induce any cell killing activity”, the IC50 (SK-BR-3 cells (HER2^++); substance titrated on fixed 50 pM trastuzumab-saporin, FIG. 2A, read-out: IC50 cell killing) was 0.5 nM and the “cell killing activity at higher concentrations” value (SK-BR-3 cells (HER2^++); titrated on fixed 50 pM pertuzumab-dianthin, higher concentrations) was “cell killing activity was reduced”.

With “pertuzumab: monoclonal antibody binding human HER2” the cell killing activity (SK-BR-3 cells (HER2^++); equivalent concentrations + 50 pM trastuzumab-saporin, FIG. 2A) was “could not induce any cell killing activity” and the cell killing activity (SK-BR-3 cells (HER2^++); [8]) was “could not induce any cell killing activity”.
